What was measured:
MV4-11 cells [1] = assay: Vitality assay, DAPI staining, flow cytometry; assay type: cell-based, human; settings: 1, 5, 10, 100 nM, 48 h; especially at 1 nM, 5 nM and 10 nM
Procedure: FIG. 14: Results of vitality assay in which MV4-11 cells were exposed to FLT3-inhibitors Marbotinib, Marbotinib Carbamate and ACC220, at different concentrations, and cell viability staining was performed.
MV4-11 cells were treated with FLT3-inhibitors at different concentrations (1 nM, 5 nM, 10 nM, 100 nM) for 48 h. Viability staining was performed using life cell staining with DAPI. Samples were analysed using flow cytometry via FACS Canto; N=3.

Ba/F3 ITD D835Y mutant = assay: FLT3 signaling in Ba/F3 mutants, Western blot; assay type: cell-based, murine; settings: 5 nM, 2 h
PBMCs [2] = assay: AnnexinV FITC/PI apoptosis staining, flow cytometry; assay type: cell-based, human; settings: PBMCs, 2, 5, 10 nM, 24 h
Procedure: (§1) FIG. 6: […] Illustrated are the different populations of living cells, early apoptosis and late apoptosis/necrosis. To elucidate the apoptotic effects the population of cells in early apoptosis and late apoptosis/necrosis is represented in a separate diagram. A) MV4-11 cell line; B) PBMCs; n=1 To analyze apoptosis cells were treated as indicated and harvested on ice. Thereafter cells were stained with Annexin V FITC for 15 min on ice in the dark. After incubation time cells were stained with PI and measured immediately on flow cytometer. An Annexin V FITC and PI single stained sample was used for compensation and an unstained control sample was used to exclude autofluorescence. […] The subG1 fraction is only a hint for apoptosis therefore we stained MV4-11 cells and PBMCs for AnnexinV FITC/PI. This staining allows a differentiation between early apoptosis and late apoptosis. […] Treating FLT3-ITD positive cells with only 5 nM Marbotinib leads to a strong induction of apoptosis without affecting other cells or cell lines tested here.

MV4-11 cells [3] = assay: as above; assay type: cell-based, human; settings: MV4-11, 2, 5, 10 nM, 24 h
Procedure: as §1

PBMCs [4] = assay: Cell cycle distribution / subG1 fraction, PI staining, flow cytometry; assay type: cell-based, human; settings: PBMCs, 2, 5, 10 nM, 48 h
Procedure: (§2) FIG. 5: Diverse human cell lines or cells were treated with different concentrations of Marbotinib (2 nM, 5 nM or 10 nM) or 5 μM STS for 48 h. Cells were harvested and stained with PI; cell cycle distribution were analyzed by flow cytometry. Cell cycle distribution and changes of subG1 fraction are illustrated. A) K562 cell line; B) NB4 cell line; C) PBMCs; n=2
(§3) After incubation, cells were harvested on ice and fixed in 80% ethanol at −20° C. for at least 1 h. Next, the cells were incubated with RNase for 30 min at room temperature, thereafter stained with propidium iodide (PI), and measured immediately with a flow cytometer. PI intercalates into DNA. In the different phases of the cell cycle, cells incorporate various amounts of PI. This allows the quantification of the cell cycle phases. The subG1 population represents the fraction of apoptotic/necrotic cells, which contains only fragmented DNA (DNA content <2N).
(§4) Additional experiments were performed to ensure the specificity of Marbotinib. Other human blood cell lines that carry no FLT3-ITD were stimulated with Marbotinib and analyzed. K562 cells derived from a patient with chronic myeloid leukemia. These cells are precursors from erythrocytes and carry a mutation of the tyrosine kinase BCR-ABL. The NB4 cells derived from a patient with acute promyelocytic leukemia and carry a mutation in the PML-RARA fusion protein (Noack, Mahendrarajah et al. 2016). Peripheral blood mononuclear cells (PBMCs) were freshly isolated from whole blood samples and used immediately for experiments. K562, NB4 and PBMCs were stimulated with different concentrations of Marbotinib for 48 h and cell cycle distribution was analyzed by flow cytometry. Marbotinib selectively leads to an increase of subG1 fraction only in FLT3-ITD positive cell lines (FIG. 3 and FIG. 4). Cell lines or cells that carry no FLT3-ITD are not affected by Marbotinib (FIG. 5).

K562 cells = assay: as above; assay type: cell-based, human; settings: K562, 2, 5, 10 nM, 48 h
Procedure: as §2, §3, §4

NB4 cells = assay: as above; assay type: cell-based, human; settings: NB4, 2, 5, 10 nM, 48 h
Procedure: as §2, §3, §4

[5] = system: FLT3-ITD in MOLM-13 cells; assay: FLT3-ITD signaling, Western blot of cell lysates; settings: MOLM-13, 5 nM
Ba/F3 ITD N676K mutant = assay: FLT3 signaling in Ba/F3 mutants, Western blot; settings: 5 nM, 2 h
FLT3-ITD in MV4-11 cells = assay: Dephosphorylation of FLT3-ITD and downstream targets over time, Western blot; assay type: cell-based, human; settings: 5 nM; 2 h, 6 h, 16 h, 24 h
From the text: Whole cell lysates were used for SDS-Page and Western blot. The blots show dephosporylation of FLT3-ITD and some of its downstream targets, cell cycle regulators, and DNA damage regulators after treatment with FLT3-inhibitors over time. GAPDH was used as loading control. Control is indicated as CTRL. Marbotinib is indicated as FLT3i3 and Marbotinib-Carbamat is indicated as FLT3i540.

For `CC(C)(C)c1cc(NC(=O)Nc2ccc3oc(C(=O)c4cc5cc(O)ccc5[nH]4)cc3c2)no1` [Marbotinib, 1-(5-(tert-butyl)isoxazol-3-yl)-3-(2-(5-hydroxy-1H-indole-2-carbonyl)benzofuran-5-yl)urea], the “cell viability, efficacy compared with AC220” value (MV4-11 cells [1]) was “more effective than compound AC220”, the “signal of p-FLT3 and p-STAT5” value (Ba/F3 ITD D835Y mutant) was “strong reduction” and the “apoptosis (AnnexinV FITC/PI)” value (PBMCs [2]) was “no changes in basal apoptosis”. The “apoptosis (AnnexinV FITC/PI)” value (MV4-11 cells [3]) was “clear induction of apoptosis”, the “cell cycle distribution / subG1 fraction” value (PBMCs [4]) was “not affected” and the “cell cycle distribution / subG1 fraction” value (K562 cells) was “not affected”. The “cell cycle distribution / subG1 fraction” value (NB4 cells) was “not affected”, the p-STAT5 [5] was “clear reduction” and the p-FLT3-ITD ([5]; 1 h) was “clearly reduces”. The “signal of p-FLT3” value (Ba/F3 ITD N676K mutant) was “strong reduction”, the “signal of p-STAT5” value (Ba/F3 ITD N676K mutant) was “strong reduction” and the “block of FLT3-ITD and its associated signaling cascades” value (FLT3-ITD in MV4-11 cells) was “effectively block”.

Source: US11384076B2, “Synthesis, pharmacology and use of new and selective FMS-like tyrosine kinase 3 (FLT3) FLT3 inhibitors” (UNIVERSITÄT REGENSBURG, priority 2017, dated 2022)
